Results reported in paper PMC5421785, “Citrullination only infrequently impacts peptide binding to HLA class II MHC” (PLoS ONE, 2017).
Like-named read-outs stand apart in the source and are kept apart here. Blank lines part the entries; values can stand above or below the compound they belong to. Square brackets hold non-standard residues; d marks the D form. Ends that are not written are not given here. Peptide text beside a SMILES is read from it. Cit = NC(=O)NCCC[C@H](N)C(=O)O

Key:
HLA-DRB1*01:01 = target: T1, HLA-DRB1*01:01 (Homo sapiens, UniProt P01903+P01911, A100R/D57E/F55L/F60I/F76Y/I96L/L162R/M171V/P40L/Q125E/R42F/V115G/Y59C); assay: HLA class II peptide binding, inhibition of radiolabeled peptide binding to purified MHC
T1 construct: EBV transformed homozygous cell lines were used as sources of MHC molecules; endogenous in cells; host or cells: EBV transformed homozygous cell lines

HLA-DRB1*04:01 = target: T2, HLA-DRB1*04:01 (Homo sapiens, UniProt P01903+P01911, A100K/A169T/F76Y/I96L/K127E/L162R/M171V/N62H/P40V/Q125Y/R42H/S133A/S149N/S66Y/V115G/V209L/W38E); assay: as above
T2 construct: EBV transformed homozygous cell lines were used as sources of MHC molecules; endogenous in cells; host or cells: EBV transformed homozygous cell lines

[1] = citrullinated 15-mer peptide (X = citrulline), purified HLA-DRB1*01:01, read-out: DRB1*01:01 binding capacity, Cit peptide (IC50 nM)
[2] = citrullinated 15-mer peptide (X = citrulline), purified HLA-DRB1*04:01, read-out: DRB1*04:01 binding capacity, Cit peptide (IC50 nM)
[3] = read-out: DRB1*01:01 binding capacity, WT peptide (IC50 nM)
[4] = read-out: DRB1*04:01 binding capacity, WT peptide (IC50 nM)
[5] = citrullinated 15-mer (X), purified MHC, inhibition of radiolabeled peptide binding, dash = IC50 >40,000 nM, read-out: DRB1*01:01 binding capacity, Cit peptide (IC50 nM)
[6] = citrullinated 15-mer (X), purified MHC, inhibition of radiolabeled peptide binding, dash = IC50 >40,000 nM, read-out: DRB1*04:01 binding capacity, Cit peptide (IC50 nM)
[7] = ratio of WT IC50 to Cit IC50, >1 = citrullination increases binding

Compound: SPGGVYATRSSAVRL [Vimentin 56 WT]
IC50 (HLA-DRB1*01:01; [3]): 7.2 nM
IC50 (HLA-DRB1*04:01; [4]): 1150 nM

Compound: CSCC[C@H](NC(=O)[C@H](CCC(=O)O)NC(=O)[C@H](CCC(=O)O)NC(=O)[C@H](CCC(N)=O)NC(=O)[C@H](CC(C)C)NC(=O)[C@H](CCCCN)NC(=O)[C@H](CCC(=O)O)NC(=O)[C@@H](N)CCCNC(N)=O)C(=O)N[C@@H](CC(C)C)C(=O)N[C@@H](CCC(N)=O)C(=O)N[C@@H](CCCNC(=N)N)C(=O)N[C@@H](CCC(=O)O)C(=O)N[C@@H](CCC(=O)O)C(=O)N[C@@H](C)C(=O)N[C@@H](CCC(=O)O)C(=O)O [XEKLQEEMLQREEAE] (H-[Cit]EKLQEEMLQREEAE-OH)
IC50 (HLA-DRB1*01:01; [5]): 26100 nM
IC50 (HLA-DRB1*04:01; [6]): > 40000 nM

Compound: CSCC[C@H](NC(=O)[C@H](CCC(=O)O)NC(=O)[C@H](CCCNC(N)=O)NC(=O)[C@H](CCSC)NC(=O)[C@H](CCC(N)=O)NC(=O)[C@H](CCCNC(=N)N)NC(=O)[C@@H](N)CCC(=O)O)C(=O)N[C@@H](CCC(=O)O)C(=O)N[C@@H](CCC(=O)O)C(=O)N[C@@H](CC(N)=O)C(=O)N[C@@H](Cc1ccccc1)C(=O)N[C@@H](C)C(=O)N[C@H](C(=O)N[C@@H](CCC(=O)O)C(=O)N[C@@H](C)C(=O)O)C(C)C [ERQMXEMEENFAVEA] (H-ERQM[Cit]EMEENFAVEA-OH)
IC50 (HLA-DRB1*01:01; [1]): 9530 nM
IC50 (HLA-DRB1*04:01; [2]): 3220 nM

Compound: REKLQEEMLQREEAE [Vimentin 186 WT]
IC50 (HLA-DRB1*01:01; [3]): 13800 nM
IC50 (HLA-DRB1*04:01; [4]): > 40000 nM

Compound: ENGSPGPMGPRGLPG [Collagen 316 WT]
IC50 (HLA-DRB1*01:01; wild-type (unmodified Arg) 15-mer peptide, purified HLA-DRB1*01:01, read-out: DRB1*01:01 binding capacity, WT peptide (IC50 nM)): > 40000 nM
IC50 (HLA-DRB1*04:01; wild-type (unmodified Arg) 15-mer peptide, purified HLA-DRB1*04:01, read-out: DRB1*04:01 binding capacity, WT peptide (IC50 nM)): > 40000 nM

Further lines, results first:

IC50 (HLA-DRB1*01:01; [1]): 2930 nM
IC50 (HLA-DRB1*04:01; [2]): > 40000 nM
Compound: CC(C)C[C@H](NC(=O)CNC(=O)[C@H](CCCNC(N)=O)NC(=O)[C@H](C)NC(=O)CNC(=O)[C@@H]1CCCN1C(=O)[C@@H](N)CC(C)C)C(=O)N[C@H](C(=O)NCC(=O)N[C@@H](CCCNC(=N)N)C(=O)N1CCC[C@H]1C(=O)NCC(=O)N[C@@H](CC(=O)O)C(=O)N[C@@H](C)C(=O)NCC(=O)O)[C@@H](C)O [LPGAXGLTGRPGDAG] (H-LPGA[Cit]GLTGRPGDAG-OH)

IC50 (HLA-DRB1*01:01; [1]): 64 nM
IC50 (HLA-DRB1*04:01; [2]): 14900 nM
Compound: CSCC[C@H](NC(=O)[C@@H](NC(=O)CNC(=O)[C@@H]1CCCN1C(=O)[C@H](CCC(N)=O)NC(=O)CNC(=O)[C@H](CCCNC(N)=O)NC(=O)[C@H](C)NC(=O)CNC(=O)[C@H](CCC(N)=O)NC(=O)[C@@H]1CCCN1C(=O)CN)C(C)C)C(=O)NCC(=O)N[C@@H](Cc1ccccc1)C(=O)N1CCC[C@H]1C(=O)O [GPQGAXGQPGVMGFP] (H-GPQGA[Cit]GQPGVMGFP-OH)

IC50 (HLA-DRB1*01:01; [1]): 7.1 nM
IC50 (HLA-DRB1*04:01; [2]): 7920 nM
Compound: CC[C@H](C)[C@H](NC(=O)CNC(=O)[C@H](CCCNC(N)=O)NC(=O)[C@H](CCC(N)=O)NC(=O)CNC(=O)[C@H](C)NC(=O)[C@H](CC(C)C)NC(=O)CNC(=O)[C@H](CCC(N)=O)NC(=O)[C@@H]1CCCN1C(=O)CNC(=O)[C@@H]1CCCN1)C(=O)N[C@H](C(=O)NCC(=O)N[C@@H](CC(C)C)C(=O)O)C(C)C [PGPQGLAGQXGIVGL]

IC50 (HLA-DRB1*01:01; [1]): > 40000 nM
DRB1*01:01 binding capacity, WT/cit ratio (HLA-DRB1*01:01; [7]): 1.0
IC50 (HLA-DRB1*04:01; [2]): > 40000 nM
DRB1*04:01 binding capacity, WT/cit ratio (HLA-DRB1*04:01; [7]): 1.0
Compound: CC(C)[C@H](NC(=O)CNC(=O)[C@H](C)NC(=O)[C@H](C)NC(=O)CNC(=O)[C@H](CC(=O)O)NC(=O)[C@H](CCCNC(N)=O)NC(=O)CNC(=O)[C@@H]1CCCN1C(=O)[C@@H]1CCCN1C(=O)CNC(=O)[C@H](CC(=O)O)NC(=O)[C@H](C)NC(=O)CN)C(=O)N[C@@H](CCCCN)C(=O)O [GADGPPGXDGAAGVK] (H-GADGPPG[Cit]DGAAGVK-OH; N-terminus and C-terminus assumed)

IC50 (HLA-DRB1*01:01; [5]): 19 nM
IC50 (HLA-DRB1*04:01; [6]): 7760 nM
Compound: CC(C)C[C@H](NC(=O)[C@H](CC(N)=O)NC(=O)[C@H](CCCCN)NC(=O)[C@H](C)NC(=O)[C@H](C)NC(=O)[C@@H](NC(=O)[C@H](CO)NC(=O)[C@H](CCC(=O)O)NC(=O)[C@H](Cc1ccc(O)cc1)NC(=O)[C@H](CCC(N)=O)NC(=O)[C@H](CCC(N)=O)NC(=O)[C@H](CCCNC(N)=O)NC(=O)[C@@H](NC(=O)[C@@H](N)CC(=O)O)C(C)C)C(C)C)C(=O)N[C@@H](CCC(N)=O)C(=O)O [DVXQQYESVAAKNLQ] (H-DV[Cit]QQYESVAAKNLQ-OH)
